According to the supplement of paper PMC6045584:
± gives the standard deviation of the averaged measurements.

How the values were obtained:
SALINOMYCIN = compound: CC[C@@H](C(=O)[C@@H](C)[C@@H](O)[C@H](C)[C@@H]1O[C@@H]([C@@H](CC)C(=O)O)CC[C@@H]1C)[C@H]1O[C@]2(C=C[C@@H](O)[C@]3(CC[C@@](C)([C@H]4CC[C@](O)(CC)[C@H](C)O4)O3)O2)[C@H](C)C[C@@H]1C [SALINOMYCIN]; experiment: surviving fraction relative to DMSO-only wells; higher = less growth inhibition; settings: exposure time: 5 days
In short: (§1)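 Tumour cell lines were grown to log phase and seeded at 250–500 cells per well in 384-well plates. They were exposed continuously to inhibitors at 0.5, 1, 5, 10, 50, 100, 500 and 1000 nM for five days, beginning 24 hours after seeding. Surviving fraction is CellTiter-Glo luminescence normalised to the median of DMSO-only wells.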

VISMODEGIB = compound: CS(=O)(=O)c1ccc(C(=O)Nc2ccc(Cl)c(-c3ccccn3)c2)c(Cl)c1 [VISMODEGIB]; experiment: as above; settings: exposure time: 5 days
In short: as §1

Test System	surviving fraction (SALINOMYCIN; 0.5 nM)	surviving fraction (SALINOMYCIN; 1 nM)	surviving fraction (SALINOMYCIN; 5 nM)	surviving fraction (SALINOMYCIN; 10 nM)	surviving fraction (SALINOMYCIN; 50 nM)	surviving fraction (SALINOMYCIN; 100 nM)	surviving fraction (SALINOMYCIN; 500 nM)	surviving fraction (SALINOMYCIN; 1000 nM)	surviving fraction (VISMODEGIB; 0.5 nM)	surviving fraction (VISMODEGIB; 1 nM)	surviving fraction (VISMODEGIB; 5 nM)	surviving fraction (VISMODEGIB; 10 nM)	surviving fraction (VISMODEGIB; 50 nM)	surviving fraction (VISMODEGIB; 100 nM)	surviving fraction (VISMODEGIB; 500 nM)	surviving fraction (VISMODEGIB; 1000 nM)
PCI30 HEADNECK	0.829 ± 0.026	0.895 ± 0.025	1.01 ± 0.07	0.945 ± 0.03	0.813 ± 0.013	0.64 ± 0.064	0.202 ± 0.005	0.145 ± 0.0085	0.911 ± 0.028	0.956 ± 0.07	0.96 ± 0.04	0.947 ± 0.065	0.898 ± 0.079	0.949 ± 0.017	0.844 ± 0.077	0.876 ± 0.043
ZR751 BREAST	1.05 ± 0.086	1.01 ± 0.11	0.992 ± 0.14	1.03 ± 0.092	1.17 ± 0.15	0.787 ± 0.089	0.408 ± 0.055	0.289 ± 0.024	0.853 ± 0.06	0.937 ± 0.16	0.799 ± 0.15	0.971 ± 0.12	0.756 ± 0.036	0.857 ± 0.037	0.835 ± 0.15	0.945 ± 0.06
22RV1 PROSTATE	1.01 ± 0.075	0.987 ± 0.053	1 ± 0.06	0.942 ± 0.059	0.817 ± 0.031	0.448 ± 0.038	0.195 ± 0.021	0.125 ± 0.015	1.01 ± 0.061	1.04 ± 0.029	0.962 ± 0.013	0.974 ± 0.0072	0.924 ± 0.037	1.102 ± 0.0057	1.04 ± 0.022	1.09 ± 0.068
HT1080 SOFT TISSUE	1.03 ± 0.034	1.02 ± 0.015	1.03 ± 0.024	1.05 ± 0.031	1.06 ± 0.03	1.03 ± 0.089	0.78 ± 0.035	0.557 ± 0.018	1.021 ± 0.01	0.971 ± 0.028	1 ± 0.014	0.978 ± 0.03	0.968 ± 0.046	0.991 ± 0.048	0.962 ± 0.024	0.994 ± 0.06
SG28 HEADNECK	1.05 ± 0.098	1.08 ± 0.06	1.07 ± 0.16	0.835 ± 0.1	0.835 ± 0.077	0.762 ± 0.046	0.498 ± 0.068	0.323 ± 0.037	1 ± 0.033	0.995 ± 0.042	0.979 ± 0.096	0.921 ± 0.096	0.801 ± 0.043	0.831 ± 0.019	0.837 ± 0.076	0.929 ± 0.099
MG63 BONE	0.963 ± 0.02	0.941 ± 0.032	0.98 ± 0.021	0.946 ± 0.045	1.006 ± 0.003	0.871 ± 0.0095	0.167 ± 0.0053	0.081 ± 0.0044	0.925 ± 0.035	0.9747 ± 0.0063	0.982 ± 0.023	0.993 ± 0.026	0.983 ± 0.003	1.01 ± 0.02	0.905 ± 0.007	0.966 ± 0.026
NCIH441 LUNG	1.01 ± 0.034	1.01 ± 0.038	1.06 ± 0.054	0.904 ± 0.06	1.12 ± 0.023	1.05 ± 0.049	0.715 ± 0.049	0.504 ± 0.061	0.971 ± 0.018	1.02 ± 0.11	1.01 ± 0.032	1.05 ± 0.036	0.971 ± 0.041	0.945 ± 0.041	0.9667 ± 0.0045	1.03 ± 0.086
COLO320DM LARGE INTESTINE	1.05 ± 0.037	1.04 ± 0.036	1.11 ± 0.026	0.522 ± 0.056	1.14 ± 0.12	0.966 ± 0.081	0.388 ± 0.0066	0.1 ± 0.006	1.02 ± 0.063	1.03 ± 0.12	1.14 ± 0.081	1.06 ± 0.069	1.05 ± 0.094	1.02 ± 0.087	1.04 ± 0.092	0.977 ± 0.095
HCC1954 BREAST	0.944 ± 0.29	0.82 ± 0.39	0.919 ± 0.36	1.03 ± 0.088	0.953 ± 0.011	0.725 ± 0.04	0.295 ± 0.0032	0.172 ± 0.023	0.673 ± 0.096	0.637 ± 0.0088	0.72 ± 0.015	0.786 ± 0.03	0.768 ± 0.18	0.6402 ± 0.0025	0.618 ± 0.01	0.546 ± 0.025
SIHA CERVIX	0.875 ± 0.013	0.878 ± 0.011	0.935 ± 0.073	0.967 ± 0.047	0.9557 ± 0.0072	0.928 ± 0.052	0.513 ± 0.038	0.419 ± 0.014	0.961 ± 0.024	1.08 ± 0.038	1.03 ± 0.045	1.06 ± 0.025	0.923 ± 0.044	0.993 ± 0.12	0.895 ± 0.097	0.991 ± 0.064
HELA CERVIX	0.974 ± 0.053	0.936 ± 0.068	0.97 ± 0.059	0.906 ± 0.041	1.03 ± 0.06	0.885 ± 0.056	0.942 ± 0.056	0.55 ± 0.045	1 ± 0.046	1.05 ± 0.052	0.9757 ± 0.0083	1.02 ± 0.07	1.0558 ± 0.001	1.14 ± 0.041	1.04 ± 0.058	1.15 ± 0.019
CAL72 BONE	1.05 ± 0.037	1.02 ± 0.044	1.04 ± 0.018	1.06 ± 0.027	1.11 ± 0.021	1.1 ± 0.049	0.647 ± 0.087	0.564 ± 0.031	0.994 ± 0.016	1.01 ± 0.017	1.021 ± 0.0075	0.9987 ± 0.0091	0.919 ± 0.042	0.934 ± 0.025	0.922 ± 0.033	0.938 ± 0.037
MDAMB468 BREAST	1 ± 0.02	1 ± 0.087	1.04 ± 0.026	1.01 ± 0.052	1.12 ± 0.022	1.09 ± 0.04	0.648 ± 0.054	0.329 ± 0.018	1.02 ± 0.064	0.927 ± 0.056	0.996 ± 0.058	0.957 ± 0.085	0.908 ± 0.083	1.02 ± 0.076	0.944 ± 0.065	0.955 ± 0.1
LM7 BONE	1.01 ± 0.021	1.01 ± 0.068	1.06 ± 0.041	1.11 ± 0.065	1.05 ± 0.053	1.09 ± 0.051	0.588 ± 0.04	0.397 ± 0.02	0.92 ± 0.055	0.955 ± 0.02	1.56 ± 1	1.03 ± 0.037	0.865 ± 0.01	0.909 ± 0.067	0.849 ± 0.067	0.86 ± 0.085
143B BONE	0.98 ± 0.044	0.99 ± 0.026	1.02 ± 0.023	1.01 ± 0.027	1.03 ± 0.018	1.03 ± 0.035	0.9815 ± 0.00071	0.763 ± 0.028	0.945 ± 0.063	0.98 ± 0.047	0.932 ± 0.1	0.993 ± 0.069	0.966 ± 0.042	0.965 ± 0.013	1.01 ± 0.046	1.01 ± 0.057
CADOES1 SOFT TISSUE	0.978 ± 0.096	0.959 ± 0.036	0.838 ± 0.14	0.918 ± 0.15	0.856 ± 0.041	0.454 ± 0.1	0.147 ± 0.0061	0.105 ± 0.004	0.884 ± 0.024	0.935 ± 0.085	0.968 ± 0.1	0.914 ± 0.056	0.952 ± 0.047	1.05 ± 0.091	0.979 ± 0.056	0.964 ± 0.073
NOS1 BONE	1.01 ± 0.071	1.07 ± 0.15	1.09 ± 0.025	1.05 ± 0.066	1.06 ± 0.083	1.09 ± 0.062	0.0907 ± 0.013	0.0537 ± 0.007	1.09 ± 0.11	1.13 ± 0.13	1.1 ± 0.076	1.2 ± 0.065	0.926 ± 0.088	0.958 ± 0.049	0.819 ± 0.022	0.832 ± 0.04
MDAMB231 BREAST	0.9877 ± 0.006	0.9962 ± 0.0061	0.993 ± 0.011	0.983 ± 0.018	1 ± 0.057	0.953 ± 0.016	0.559 ± 0.011	0.425 ± 0.0083	0.9193 ± 0.003	0.942 ± 0.018	0.95 ± 0.019	0.96 ± 0.02	0.884 ± 0.014	0.9527 ± 0.0036	0.85 ± 0.025	0.8868 ± 0.0044
HSSYII SYNOVIAL	0.892 ± 0.033	0.842 ± 0.027	0.864 ± 0.043	0.582 ± 0.026	0.94 ± 0.017	0.743 ± 0.033	0.0705 ± 0.0015	0.0267 ± 0.0019	0.894 ± 0.023	0.931 ± 0.038	0.904 ± 0.078	0.906 ± 0.037	0.812 ± 0.027	0.831 ± 0.03	0.795 ± 0.026	0.771 ± 0.014
S68 BREAST	0.923 ± 0.097	0.998 ± 0.14	1.37 ± 0.22	1.04 ± 0.29	0.934 ± 0.22	0.731 ± 0.079	0.337 ± 0.099	0.209 ± 0.03	0.99 ± 0.087	0.839 ± 0.11	1.21 ± 0.25	1.04 ± 0.2	0.762 ± 0.19	0.917 ± 0.23	0.805 ± 0.12	0.621 ± 0.058
